Assay results as given in patent US20230137092A1, “Composition and Method for the Treatment and Prevention of Cardiac, Pulmonary, Dermal, and Renal Fibrosis” (EMERALD HEALTH PHARMACEUTICALS INC., priority 2020, published 2023).

Legend:
Type in all cases: in vivo, mouse
[1] = system: Ang II-induced aortic fibrosis; assay: Ang II preventive model: aorta sections, picrosirius red; details: Ang II two weeks, oral treatment
Description: Ang II causes myocardial fibrosis in a short period of time (Sopel M et al., 2011, Lab. Invest., 91:565-578) characterized by collagen accumulation and after 14 days of Ang II infusion (Sigusch H H et al., 1996, Cardiovascular Research, 31:546-554). […] Subcutaneous infusion of Ang II using ALZET® osmotic pumps was used to study compound preventive effects. ALZET® osmotic minipumps (Model #2004, Charles Rives, Barcelona, Spain) delivering of Ang II (1.0 mg kg^− min^−) (Sigma-Aldrich, Madrid, Spain) for two weeks. Compound treatment was daily administered in parallel, one day before of the implantation of the subcutaneous pump, beneath the mid scapular loose skin and consisted of daily oral gavage of compound (20 mg/kg) or vehicle (Corn Oil/Maisine CC, 1/1). Mice were acclimated to manipulators for a week previously to the experiments in order to reduce stress and allow the detection of subtle changes in behavior by researchers. […] Neither piloerection nor hunched appearances were appreciated during the experimental procedures. […]
Mice treated with Ang II presented an increase in the thickness of aortic media layer by collagen accumulation. […] Three-four random fields of each heart were photographed by standard brightfield microscopy and digitalized using a Leica DFC420c camera and analyzed using Fiji software (rsb.info.nih.gov/ij/).

[2] = system: Ang II-induced cardiac inflammation and fibrosis; assay: Immunohistochemistry of inflammatory and fibrotic markers (F4/80, TNC) in left ventricle, Ang II preventive model; details: 20 mg/kg oral, compared with Ang II untreated mice
Description: Macrophages accumulation are the hallmark of Ang II-induced fibrosis and play important roles during the inflammatory phase. Macrophage accumulation was identified by staining with a mAb that identifies F4/80^+ cells (FIG. 3). TNC is an ECM molecule that is expressed in response to injury in various tissues. Although not detectable in the normal adult heart, it was expressed under pathological conditions (FIG. 4).
Heart sections (Left ventricle) ([…]) were deparaffinized and boiled for 10 minutes in sodium citrate buffer (10 mM, pH 6.0) (Sigma-Aldrich, Madrid, Spain) for antigen retrieval. The sections were then incubated in a PBS washing buffer containing 0.1% Tween (Sigma-Aldrich, Madrid, Spain) three times for 10 minutes. The sections were incubated overnight at 4° C. with the following antibodies; for immunohistochemical detection of macrophages F4/80 antibody (1:50; MCA497, Bio-Rad) or with monoclonal anti-TNC (1:100 dilution, #MAB2138, RD system, Mineapolis, Minn., USA) were used for detection of this ECM protein. Slides were developed with diaminobenzidine chromogen (Agilent, Santa Clara, Calif., USA) and counterstained in Harris hematoxylin (Sigma-Aldrich, Madrid, Spain). Slides were photographed, digitalized using a Leica DFC420c camera and analyzed using Image J software.

E2F pathway = assay: Real-time quantitative PCR of E2F pathway markers in cardiac tissue, Ang II preventive model; details: Ang II mice; #p<0.05 versus Ang II group
[3] = system: Ang II-induced dermal fibrosis; assay: Ang II-induced dermal fibrosis, preventive model, Sirius Red; details: Ang II 1.0 mg kg^- min^- two weeks, 20 mg/kg oral gavage
Description: The local renin angiotensin system exists in almost all organs, including skin. Ang II induces fibrosis in the skin via accumulation of activated fibroblasts. Dermal fibrosis was induced in mice by infusion of Ang II (1.0 mg kg^− min^−) for two weeks. The treatment with the compound of Formula (VIII) by oral gavage was the same as describe in Example 2. After two weeks of treatment, the mice were sacrificed under ether anesthesia. Skin samples were collected and fixed in 4% paraformaldehyde and embedded in paraffin. Skin sections (5 μm) were stained with Sirius Red for evaluation of fibrosis. Subcutaneous Ang II infusion induced a significant increase of collagen content and in the mice treated with compound, the induction of fibrosis in the skin is prevented (FIG. 11).

[4] = system: Ang II-induced aortic fibrosis; assay: Ang II therapeutic model: aorta adventitial collagen, Sirius red; details: Ang II four weeks, 20 mg/kg oral last two weeks, ###p<0.001 versus Ang II group
Description: For the therapeutic model, infusion of Ang II for four weeks and the compound of Formula (VIII) (20 mg/kg) was administrated after two weeks of pump implantation. Subcutaneous infusion of Ang II using ALZET osmotic minipumps was used to study the preventive effects of the compound ALZET® osmotic minipumps (Model #2004, Charles Rives, Barcelona, Spain) delivering of Ang II (500 ng kg^−1 min^−1) (Sigma-Aldrich, Madrid, Spain) for four weeks. Compound treatment was daily administered in parallel, two weeks after the implantation of the subcutaneous pump, beneath the midscapular loose skin and consisted of daily oral gavage of compound of Formula (VIII) (20 mg/kg) or vehicle (Corn Oil/Maisine CC, 1/1). Mice were acclimated to manipulators for a week previously to the experiments in order to reduce stress and allow the detection of subtle changes in behavior by researchers. […] Neither piloerection nor hunched appearances were appreciated during the experimental procedures. Mice were sacrificed by cervical dislocation and the heart, aorta, kidney, and lung were removed and processed for histological examination or were frozen for further analysis.

## C=C(C)C1CCC(C)=C[C@H]1C1=C(O)C(=O)C(CCCCC)=C(NCc2ccccc2)C1=O (some centres unmarked) [Formula (VIII)]
[1]
  thickness of aortic media layer by collagen accumulation: significantly alleviated
[2]
  TNC marker in left ventricle (immunostaining): significantly reduced
  infiltration of F4/80+ macrophages in myocardial tissue: significantly reduced
E2F pathway
  CDK1 gene expression in cardiac tissue: down regulated
  MKi67 gene expression in cardiac tissue: down regulated
  TOP2A gene expression in cardiac tissue: down regulated
[3]
  induction of fibrosis in the skin (collagen content): prevented
[4]
  aorta collagen content in adventitial layer: antifibrotic activity
